Values after ≈ are worked out from the molar mass of the structure shown.
Experiments:
[1] = Pharmacokinetic study in albino rats; assay type: in vivo; conditions: 10 mg/kg
[2] = Drug solubility of free PTL and PTL-loaded nanoparticles; assay type: physicochemical; conditions: phosphate buffer, pH 7.4

- AUC(0-inf) ([1]; rat, plasma, po): 2980 ± 53.1 ng·h/mL
- AUC(0-t) ([1]; rat, plasma, po): 2830 ± 56.8 ng·h/mL
- Cmax ([1]; rat, plasma, po): 239 ± 26.2 ng/mL
- Tmax ([1]; rat, plasma, po): 2 ± 0.05 h
- half-life ([1]; rat, plasma, po): 8.76 ± 1.1 h
- Kel ([1]; rats): 0.072 ± 0.001
- plasma PTL concentration after 12 h ([1]; rats, HPLC): below the HPLC quantification limit
- solubility at 24 h [2]: ~4.5 µg/mL (≈ 5.27 µM)
SMILES: CC(=O)O[C@H]1C(=O)[C@@]2(C)[C@H]([C@H](OC(=O)c3ccccc3)[C@]3(O)C[C@H](OC(=O)[C@H](O)[C@@H](NC(=O)c4ccccc4)c4ccccc4)C(C)=C1C3(C)C)[C@]1(OC(C)=O)CO[C@@H]1C[C@@H]2O [PTL, Paclitaxel]

— PMC10018692 (ACS Omega, 2023)
